The results in this text go back to ChEMBL document CHEMBL1148997, “Stereochemical considerations in relation to the pharmacological activity of Pterotaberna alkaloids” (J Nat Prod, 1985).

For experiment [1], the system named is Ileum. Kind of experiment: Antihistaminic effect in guinea pig ileum assessed as inhibition of histamine-induced contraction by Schild plot. It is filed as functional, tissue-based. The following applies: Cavia porcellus, read-out: pA2 (converted).
Experiment [2] concerns Ileum. Put plainly: Anticholinergic effect in guinea pig ileum assessed as inhibition of acetylcholine-induced contraction. It is filed as functional.
The subject of experiment [3] is Ileum. Kind of experiment: Inhibition of electrically-induced twitch contraction in guinea pig ileum at 3.4 uM. It is filed as functional, tissue-based. The following applies: Cavia porcellus.
Experiment [4] has as its system Ileum. Kind of experiment: Inhibition of electrically-induced twitch contraction in guinea pig ileum at 1 ug/ml after 15 mins. It counts as functional. The conditions noted are these: Cavia porcellus, 0.25 h.
Experiment [5] relates to Ileum. Put plainly: Inhibition of electrically-induced twitch contraction in guinea pig ileum at 3.2 uM. It counts as functional, tissue-based. The following applies: Cavia porcellus.
Experiment [6] deals with Ileum. Kind of experiment: Antihistaminic effect in guinea pig ileum assessed as inhibition of histamine-induced contraction. It counts as functional, Cavia porcellus.
Experiment [7] concerns Ileum. Kind of experiment: Anticholinergic effect in guinea pig ileum assessed as inhibition of acetylcholine-induced contraction at 1 uM. The following applies: Cavia porcellus. It counts as functional, tissue-based.
Experiment [8] concerns Ileum. Put plainly: Anticholinergic effect in guinea pig ileum assessed as inhibition of acetylcholine-induced contraction at 3.4 uM. It counts as functional, tissue-based. The following applies: Cavia porcellus.
For experiment [9], the system named is Ileum. Kind of experiment: Inhibition of electrically-induced twitch contraction in guinea pig ileum at 1 uM. It is filed as functional, tissue-based. The conditions noted are these: Cavia porcellus.
Experiment [10] concerns Ileum. Kind of experiment: Inhibition of electrically-induced twitch contraction in guinea pig ileum at 3.4 uM preincubated for 15 mins before addition of naloxone in presence of naloxone. It counts as functional, tissue-based. The following applies: Cavia porcellus.
Experiment [11] concerns Ileum. Kind of experiment: Antihistaminic effect in guinea pig ileum assessed as inhibition of histamine-induced contraction at 34 uM. It is filed as functional, tissue-based. The following applies: Cavia porcellus.
The next experiment concerns Intestine. Put plainly: Anticholinergic effect in rat intestine assessed as inhibition of acetylcholine-induced contraction. It counts as functional, tissue-based. The following applies: read-out: pA2 (converted).

Activity calls are given as the source filed them. The rule behind the calls is not given here.

As usually defined, the inhibition is how much of the control response was suppressed. A higher inhibition goes with a response far below the control. In the case of `C/C=C1/CN(C)C[C@@H]2Cc3c([nH]c4ccccc34)C(=O)C[C@@H]12`, the Kb with Ileum [1] was 0.282 µM. For the same compound, in the experiment with Ileum [2] (Cavia porcellus), the result was inactive. Moreover, the outcome in the experiment with Ileum [3] was Active. Also, the inhibition at 1 µg/mL with Ileum [4] is 20%.

`C/C=C1/CN(C)C[C@H]2C(=O)c3c([nH]c4ccccc34)C(=O)C[C@@H]12`: in the experiment with Ileum [5], the result was inactive.

For `C/C=C1/C[N+](C)([O-])C[C@H]2Cc3c([nH]c4ccccc34)C(=O)C[C@@H]12` (stereo partly specified), the result with Ileum [5] was inactive.

Take `C/C=C1/CN(C)C[C@H]2Cc3c([nH]c4ccccc34)C(=O)C[C@@H]12` [METHUENINE]: the pD2 in the experiment on Ileum [6] came out at 5.13; with Ileum [2] it was 5.1. For the same compound, the result with Ileum [7], with Ileum [8], in the experiment with Ileum [9], in the experiment with Ileum [3], in the experiment with Ileum [10] and in the experiment with Ileum [11] was Active.

As to `COc1ccc(Cc2nccc3cc(OC)c(OC)cc23)cc1OC` [PAPAVERINE], the pD2 in the experiment with Ileum [2] is given as 5.08. Moreover, in the experiment with Intestine, the Kb was 15.8 µM.
